PubChem BioAssay AID330 (DTP/NCI, 2004)
“And” between values parts separate entries of the source, which are not always exact repeats. Identical values can stand only once. Toxic doses and inconclusive results are not listed. The calls were made as follows: active = survival T/C of 150% or more; inactive = T/C below 125% in these data.

Test system: P388 leukemia ip, CD2F1 mice, survival T/C
Assay: NCI In Vivo Anticancer Drug Screen. Data for tumor model P388 Leukemia (intraperitoneal) in CD2F1 (CDF1) mice
Settings: endpoint: median survival time, higher = longer survival
How it was run: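 Mice carrying the transplanted tumor received test compound or vehicle. Survival was recorded in each group, and the value is the treated-group measurement divided by that of the vehicle-treated control group.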

[1] = dose: 50.0 mg/kg/injection, schedule: Q01DX009 (ip), vehicle: saline with Tween-80
[2] = dose: 100.0 mg/kg/injection, schedule: Q01DX009 (ip), vehicle: saline with Tween-80
[3] = dose: 200.0 mg/kg/injection, schedule: Q01DX009 (ip), vehicle: saline with Tween-80
[4] = dose: 400.0 mg/kg/injection, schedule: Q01DX009 (ip), vehicle: saline with Tween-80
[5] = dose: 50.0 mg/kg/injection, schedule: Q01DX005 (ip), vehicle: saline with Tween-80
[6] = dose: 100.0 mg/kg/injection, schedule: Q01DX005 (ip), vehicle: saline with Tween-80
[7] = dose: 200.0 mg/kg/injection, schedule: Q01DX005 (ip), vehicle: saline with Tween-80
[8] = dose: 50.0 mg/kg/injection, schedule: Q01DX009 (ip), vehicle: Klucel (hydroxypropylcellulose) (HPC)
[9] = dose: 100.0 mg/kg/injection, schedule: Q01DX009 (ip), vehicle: Klucel (hydroxypropylcellulose) (HPC)
[10] = dose: 200.0 mg/kg/injection, schedule: Q01DX009 (ip), vehicle: Klucel (hydroxypropylcellulose) (HPC)

Measured: T/C

COc1ccc2c(c1O)C1=CC=CCC13CCN(C)C3C2 (stereo unspecified)
inactive: dose: 100.0 mg/kg/injection, schedule: Q04DX002 (ip), vehicle: saline with Tween-80 103 % of control | dose: 200.0 mg/kg/injection, schedule: Q04DX002 (ip), vehicle: saline with Tween-80 105 % of control | dose: 400.0 mg/kg/injection, schedule: Q04DX002 (ip), vehicle: saline with Tween-80 108 % of control

CCC[CH2][Sn][Cl]
inactive: [1] 104 % of control | [2] 114 % of control | [3] 117 % of control

CCOC(=O)C1OC(n2cnc3c(N)ncnc32)C(O)C1O (stereo unspecified)
inactive: [1] 96 % of control | dose: 50.0 mg/kg/injection, schedule: Q01DX009 (ip), vehicle: saline 103 % of control | [2] 98 % of control | dose: 100.0 mg/kg/injection, schedule: Q01DX009 (ip), vehicle: saline 100 % of control and 106 % of control | [3] 124 % of control | dose: 200.0 mg/kg/injection, schedule: Q01DX009 (ip), vehicle: saline 101 % of control and 106 % of control | [4] 117 % of control | dose: 400.0 mg/kg/injection, schedule: Q01DX009 (ip), vehicle: saline 111 % of control

NC(=S=O)C(N)=S=O
inactive: [5] 103 % of control and 110 % of control | [6] 112 % of control and 117 % of control

COc1ccc2[nH]c3c(C)c4ccn5c(=O)c6ccccc6cc5c4c(C)c3c2c1
inactive: dose: 0.1 mg/kg/injection, schedule: Q04DX003 (ip), vehicle: distilled water + Tween-80 87 % of control | dose: 0.2 mg/kg/injection, schedule: Q04DX003 (ip), vehicle: distilled water + Tween-80 100 % of control | dose: 0.4 mg/kg/injection, schedule: Q04DX003 (ip), vehicle: distilled water + Tween-80 91 % of control | dose: 0.78 mg/kg/injection, schedule: Q04DX003 (ip), vehicle: distilled water + Tween-80 87 % of control | dose: 0.8 mg/kg/injection, schedule: Q04DX003 (ip), vehicle: distilled water + Tween-80 92 % of control | dose: 200.0 mg/kg/injection, schedule: Q04DX003 (ip), vehicle: distilled water + Tween-80 91 % of control

CC(C)=CC1C(C(=O)OCc2ccc(C)cc2C)C1(C)C (stereo unspecified)
inactive: [2] 104 % of control | dose: 100.0 mg/kg/injection, schedule: Q04DX003 (ip), vehicle: saline with Tween-80 100 % of control | [3] 109 % of control | dose: 200.0 mg/kg/injection, schedule: Q04DX003 (ip), vehicle: saline with Tween-80 100 % of control | [4] 122 % of control | dose: 400.0 mg/kg/injection, schedule: Q04DX003 (ip), vehicle: saline with Tween-80 100 % of control

COc1cc(C(=O)c2c(OC)cccc2C(=O)O)c(OC)cc1C
inactive: dose: 25.0 mg/kg/injection, schedule: Q01DX009 (ip), vehicle: saline with Tween-80 101 % of control | [1] 105 % of control | [2] 110 % of control | [3] 99 % of control | [4] 99 % of control

CCOC(=O)c1cc(=O)c2c(OC)ccc(Cl)c2[nH]1
inactive: dose: 60.0 mg/kg/injection, schedule: Q01DX005 (ip), vehicle: Klucel (hydroxypropylcellulose) (HPC) 100 % of control | dose: 120.0 mg/kg/injection, schedule: Q01DX005 (ip), vehicle: Klucel (hydroxypropylcellulose) (HPC) 99 % of control | dose: 240.0 mg/kg/injection, schedule: Q01DX005 (ip), vehicle: Klucel (hydroxypropylcellulose) (HPC) 96 % of control

O=C(CCCCCCCC(=O)Nc1ccc2c(=O)c3ccccc3[nH]c2c1)Nc1ccc2c(=O)c3ccccc3[nH]c2c1
inactive: [5] 103 % of control | [6] 110 % of control | [7] 92 % of control

COC(=O)/C=C(\Br)C(=O)OC
inactive: dose: 1.56 mg/kg/injection, schedule: Q01DX009 (ip), vehicle: saline with Tween-80 106 % of control | dose: 3.12 mg/kg/injection, schedule: Q01DX009 (ip), vehicle: saline with Tween-80 98 % of control | dose: 6.25 mg/kg/injection, schedule: Q01DX009 (ip), vehicle: saline with Tween-80 101 % of control

COc1ccc(NC(=O)C2C(=O)C(=O)N(c3ccc(OC)cc3OC)C2=O)c(OC)c1 (stereo unspecified)
inactive: [8] 98 % of control | [9] 100 % of control | [10] 98 % of control

CN1C(=S)NC2C(O)C(O)C(CO)OC21 (stereo unspecified)
inactive: [5] 97 % of control | [6] 99 % of control | [7] 99 % of control

O=C(O)c1cn(O)ccc1=O
inactive: [5] 94 % of control | [6] 100 % of control | [7] 97 % of control

Cn1cnc2cc(Cl)c([N+](=O)[O-])cc2c1=O
inactive: dose: 100.0 mg/kg/injection, schedule: Q04DX002 (ip), vehicle: Klucel (hydroxypropylcellulose) (HPC) 102 % of control | dose: 200.0 mg/kg/injection, schedule: Q04DX002 (ip), vehicle: Klucel (hydroxypropylcellulose) (HPC) 110 % of control | dose: 400.0 mg/kg/injection, schedule: Q04DX002 (ip), vehicle: Klucel (hydroxypropylcellulose) (HPC) 102 % of control

O=C([O-])c1c[n+]2c(cc1C(=O)O)-c1cc3c(cc1CC2)OCO3
inactive: dose: 0.63 mg/kg/injection, schedule: Q01DX009 (ip), vehicle: distilled water + Tween-80 99 % of control | dose: 1.25 mg/kg/injection, schedule: Q01DX009 (ip), vehicle: distilled water + Tween-80 94 % of control | dose: 2.5 mg/kg/injection, schedule: Q01DX009 (ip), vehicle: distilled water + Tween-80 94 % of control | dose: 5.0 mg/kg/injection, schedule: Q01DX009 (ip), vehicle: distilled water + Tween-80 94 % of control | dose: 10.0 mg/kg/injection, schedule: Q01DX009 (ip), vehicle: distilled water + Tween-80 99 % of control | dose: 20.0 mg/kg/injection, schedule: Q01DX009 (ip), vehicle: distilled water + Tween-80 100 % of control

[O-][n+]1nc2ccccc2c2ccccc21
inactive: dose: 12.5 mg/kg/injection, schedule: Q01DX009 (ip), vehicle: Klucel (hydroxypropylcellulose) (HPC) 105 % of control | dose: 25.0 mg/kg/injection, schedule: Q01DX009 (ip), vehicle: Klucel (hydroxypropylcellulose) (HPC) 105 % of control | [8] 105 % of control and 97 % of control | [9] 102 % of control

O=C(Nc1ccc(Cl)cc1)Nc1nnc2nc(C3(c4nc5nnc(NC(=O)Nc6ccc(Cl)cc6)n5[nH]c4=O)CCCC3=O)c(=O)[nH]n12
inactive: dose: 30.0 mg/kg/injection, schedule: Q01DX005 (ip), vehicle: saline with Tween-80 95 % of control | dose: 60.0 mg/kg/injection, schedule: Q01DX005 (ip), vehicle: saline with Tween-80 91 % of control and 95 % of control | dose: 240.0 mg/kg/injection, schedule: Q01DX005 (ip), vehicle: saline with Tween-80 86 % of control

On1cccc2c(Br)cnc1-2
inactive: dose: 100.0 mg/kg/injection, schedule: Q01DX001 (ip), vehicle: saline with Tween-80 98 % of control | dose: 200.0 mg/kg/injection, schedule: Q01DX001 (ip), vehicle: saline with Tween-80 99 % of control | dose: 400.0 mg/kg/injection, schedule: Q01DX001 (ip), vehicle: saline with Tween-80 90 % of control

C=CCC(C)(C)CC=C1C2CCC1N(C(=O)OC)N2C(=O)OC
inactive: dose: 25.0 mg/kg/injection, schedule: Q01DX005 (ip), vehicle: saline with Tween-80 107 % of control | [5] 99 % of control | [6] 112 % of control

Cc1cc(NC(=O)Nc2ccc(C3=NCCN3)cc2)ccc1NC(=O)Nc1ccc(C2=NCCN2)cc1
inactive: dose: 100.0 mg/kg/injection, schedule: Q04DX003 (ip), vehicle: saline 100 % of control | dose: 200.0 mg/kg/injection, schedule: Q04DX003 (ip), vehicle: saline 104 % of control | dose: 400.0 mg/kg/injection, schedule: Q04DX003 (ip), vehicle: saline 109 % of control

O=c1[nH]c2cc(Cl)ccc2c(=O)o1
inactive: [8] 112 % of control | [9] 100 % of control | [10] 103 % of control

CC(C)=NOc1ccccc1[N+](=O)[O-]
inactive: [1] 111 % of control | [2] 101 % of control | [3] 93 % of control

Cc1ccc(S(=O)(=O)ONNc2nccc3ccccc23)cc1
inactive: dose: 100.0 mg/kg/injection, schedule: Q04DX002 (ip), vehicle: saline 103 % of control | dose: 200.0 mg/kg/injection, schedule: Q04DX002 (ip), vehicle: saline 96 % of control | dose: 400.0 mg/kg/injection, schedule: Q04DX002 (ip), vehicle: saline 97 % of control

COc1cc(C(=O)CC2=NC3NN(c4ccccc4)C(=O)C3=C2CC(=O)c2ccc(O)c(OC)c2)ccc1O (stereo unspecified)
inactive: dose: 60.0 mg/kg/injection, schedule: Q01DX005 (ip), vehicle: saline 100 % of control | dose: 120.0 mg/kg/injection, schedule: Q01DX005 (ip), vehicle: saline 102 % of control | dose: 240.0 mg/kg/injection, schedule: Q01DX005 (ip), vehicle: saline 98 % of control

OCC1=CCN2CC[C@@H](O)[C@@H]12
inactive: dose: 50.0 mg/kg/injection, schedule: Q01DX005 (ip), vehicle: saline 93 % of control | dose: 100.0 mg/kg/injection, schedule: Q01DX005 (ip), vehicle: saline 107 % of control | dose: 200.0 mg/kg/injection, schedule: Q01DX005 (ip), vehicle: saline 93 % of control
